Experiments:
STHdhQ111/111 cells = assay: Rescue from UPR-induced cell death (tunicamycin), PI cell cycle FACS, sub-G0/G1 fraction; assay type: cell-based; settings: Tun for 48 hours
Description: (§1) STHdhQ7/7 and STHdhQ111/111 cells were grown as described in Leitman et al. [PLoS One 2014, 9(3):e90803].
After the indicated treatment times in full medium or in DMEM without serum, cells were incubated with propidium iodide (PI) solution ([…]) and read by flow cytometry as described in Leitman et al. [PLoS One 2014, 9(3):e90803]. Cells in sub-G0/G1 were counted as apoptotic/dead cells.
The activity of the novel inhibitors, compared to A4, in preventing cytotoxicity induced by pathogenic Htt, was then tested. A stable murine striatal cell line expressing full-length polyQ-expanded Htt, STHdhQ^111/111, was used.

cells = assay: Intrinsic cytotoxicity on cells; assay type: cell-based
RIPK1 = target: T1, RIPK1 (Homo sapiens, UniProt Q13546); settings: Rojas-Rivera et al. 2017; cited from earlier work
T1 sequence (Q13546 1-671): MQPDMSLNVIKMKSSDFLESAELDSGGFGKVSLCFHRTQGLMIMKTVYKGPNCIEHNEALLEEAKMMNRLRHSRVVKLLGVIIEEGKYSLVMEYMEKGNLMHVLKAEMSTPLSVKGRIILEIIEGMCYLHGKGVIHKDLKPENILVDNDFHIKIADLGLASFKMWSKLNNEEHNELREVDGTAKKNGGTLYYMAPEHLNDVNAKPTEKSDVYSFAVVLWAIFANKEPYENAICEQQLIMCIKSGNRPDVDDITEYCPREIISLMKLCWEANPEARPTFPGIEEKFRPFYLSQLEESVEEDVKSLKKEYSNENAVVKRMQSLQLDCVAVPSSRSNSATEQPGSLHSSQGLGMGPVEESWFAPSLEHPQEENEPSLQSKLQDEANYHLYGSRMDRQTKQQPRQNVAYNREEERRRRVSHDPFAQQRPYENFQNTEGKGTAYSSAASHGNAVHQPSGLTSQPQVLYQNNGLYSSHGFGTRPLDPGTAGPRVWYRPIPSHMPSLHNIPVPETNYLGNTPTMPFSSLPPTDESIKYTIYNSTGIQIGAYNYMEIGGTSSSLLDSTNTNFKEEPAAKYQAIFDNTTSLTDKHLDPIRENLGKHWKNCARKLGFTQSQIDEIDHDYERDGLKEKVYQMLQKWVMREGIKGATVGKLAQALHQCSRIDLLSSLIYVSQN

PERK (eIF2αK3) = target: T2, PERK (eIF2αK3) (Mus musculus, UniProt Q9Z2B5); assay: ER stress-mediated eIF2α phosphorylation in tunicamycin-treated striatal cells (immunoblotting); assay type: cell-based, murine; settings: STHdhQ7/7 cells, Tun 5 μg/ml for 48 hours; A4 50 μM, PKRi 1 μM
T2 construct: endogenous in cells; host or cells: STHdhQ7/7 murine striatal cells
T2 sequence (Q9Z2B5 29-1114): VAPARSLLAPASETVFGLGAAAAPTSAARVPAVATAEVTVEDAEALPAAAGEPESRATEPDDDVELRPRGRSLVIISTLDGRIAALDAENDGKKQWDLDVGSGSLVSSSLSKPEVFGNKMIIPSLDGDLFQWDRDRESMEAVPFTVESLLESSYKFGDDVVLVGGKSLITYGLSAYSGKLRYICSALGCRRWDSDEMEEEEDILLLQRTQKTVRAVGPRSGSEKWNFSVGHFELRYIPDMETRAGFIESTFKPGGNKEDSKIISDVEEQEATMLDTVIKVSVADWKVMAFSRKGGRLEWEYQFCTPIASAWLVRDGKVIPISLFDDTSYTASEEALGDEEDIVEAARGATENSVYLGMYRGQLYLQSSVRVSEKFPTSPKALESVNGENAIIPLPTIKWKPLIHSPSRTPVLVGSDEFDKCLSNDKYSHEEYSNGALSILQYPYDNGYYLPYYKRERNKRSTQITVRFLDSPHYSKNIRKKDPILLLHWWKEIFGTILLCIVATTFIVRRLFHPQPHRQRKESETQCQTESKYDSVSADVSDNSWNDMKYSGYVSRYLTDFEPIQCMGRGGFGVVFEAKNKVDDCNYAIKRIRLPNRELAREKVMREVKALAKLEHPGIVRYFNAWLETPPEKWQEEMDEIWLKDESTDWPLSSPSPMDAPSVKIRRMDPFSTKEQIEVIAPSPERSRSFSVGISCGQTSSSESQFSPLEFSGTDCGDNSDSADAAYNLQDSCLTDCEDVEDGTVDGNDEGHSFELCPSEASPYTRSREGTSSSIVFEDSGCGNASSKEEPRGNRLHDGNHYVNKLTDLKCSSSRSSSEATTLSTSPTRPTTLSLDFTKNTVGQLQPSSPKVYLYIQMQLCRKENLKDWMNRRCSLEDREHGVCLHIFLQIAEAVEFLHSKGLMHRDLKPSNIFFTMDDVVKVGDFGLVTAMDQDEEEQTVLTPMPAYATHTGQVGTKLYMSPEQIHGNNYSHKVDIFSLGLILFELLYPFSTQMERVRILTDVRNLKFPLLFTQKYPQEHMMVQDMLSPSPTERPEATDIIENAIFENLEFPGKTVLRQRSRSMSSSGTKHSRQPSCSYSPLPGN
Description: as §1
(§2) Cells were treated with Tun ([…]) or with A4, PKRi, poly-I:C or exemplary PERK inhibitors of the present embodiments, by adding the tested compound to the cell medium at the indicated concentrations and times. Cell lysis and immunoblotting was performed as described in Leitman et al. [PLoS One 2014, 9(3):e90803].
As the activity of PERK was particularly affected in the Huntington's disease (HD) models [Leitman et al., PLoS One 2014, 9(3):e90803], the therapeutic capacity of a PERK inhibitor named A4 [Wang et al., Chem Biol Drug Des 2010, 76:480-495] was tested in cells expressing polyQ-expanded Htt, as depicted in Background art FIG. 1.

PKR (eIF2αK2) = target: T3, PKR (eIF2αK2) (Mus musculus, UniProt Q03963); assay: PKR activity induced with poly-I:C in cells; assay type: cell-based
T3 construct: endogenous in cells
T3 sequence (Q03963 1-515): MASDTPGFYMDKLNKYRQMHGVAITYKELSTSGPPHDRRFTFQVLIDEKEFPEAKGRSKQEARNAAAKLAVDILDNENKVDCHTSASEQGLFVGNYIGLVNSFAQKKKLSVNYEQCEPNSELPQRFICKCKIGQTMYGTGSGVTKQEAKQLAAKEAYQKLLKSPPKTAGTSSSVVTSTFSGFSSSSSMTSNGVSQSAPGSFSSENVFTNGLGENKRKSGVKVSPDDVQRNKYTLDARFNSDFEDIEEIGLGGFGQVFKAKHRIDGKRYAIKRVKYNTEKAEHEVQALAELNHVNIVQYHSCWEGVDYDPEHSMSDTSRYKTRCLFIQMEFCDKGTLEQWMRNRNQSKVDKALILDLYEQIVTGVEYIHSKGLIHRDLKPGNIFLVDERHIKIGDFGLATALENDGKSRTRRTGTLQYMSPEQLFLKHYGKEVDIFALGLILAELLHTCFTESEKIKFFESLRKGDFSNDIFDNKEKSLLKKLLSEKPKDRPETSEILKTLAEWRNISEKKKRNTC
Description: as §2

[1] = tested on: betaTC-tet pancreatic islet beta-cell line; assay: Toxicity in pancreatic beta cells; assay type: cell-based, mouse; settings: betaTC-tet cells, tested concentration range up to 500 nm
Description: MK-28 toxicity was tested in pancreatic beta cells, the type of cell that is most sensitive when ER stress response pathways are affected. A conditionally transformed mouse pancreatic islet beta-cell line (betaTC-tet), such as described by Efrat [Ann NY Acad Sci 1999, 875:286-293], was used. These cells produce high amounts of insulin, resulting in a high protein load in the ER, making them very sensitive to ER stress and other stimuli, such as cytokine effects. Compromising any of the UPR branches leads to cytotoxicity in these cells. MK-28 was compared to the ER stressor tunicamycin (Tun).

COc1cc(/C=N\N(C)c2nc(-c3ccccc3)cc(-c3ccccc3)n2)ccc1O [Compound 1, 2-{N-methyl-N′-(3-methoxy-4-hydroxybenzylidene)hydrazinyl}-4,6-diphenylpyrimidine]
rescue from UPR-induced cell death (cytotoxicity) (STHdhQ111/111 cells): more potent than A4
intrinsic cytotoxicity on cells (cells): neither MPGL1 nor MK-28 exhibited intrinsic cytotoxicity

Cn1cc(-c2ccc3c(c2)CCN3C(=O)Cc2cccc(C(F)(F)F)c2)c2c(N)ncnc21 [GSK2606414]
inhibition of RIPK1 (RIPK1): potent inhibitors of RIPK1

Cc1cccc(CC(=O)N2CCc3c2ccc(-c2cn(C)c4ncnc(N)c24)c3F)n1 [GSK2656157]
inhibition of RIPK1 (RIPK1): potent inhibitors of RIPK1

O=C1Nc2ccc3ncsc3c2/C1=C/c1cnc[nH]1 [PKRi, reference compound]
inhibition of ER stress-mediated eIF2α phosphorylation (PERK (eIF2αK3)): not by PKRi
inhibition of PKR activity (PKR (eIF2αK2)): inhibited
rescue from UPR-induced cell death (cytotoxicity) (STHdhQ111/111 cells): had no effect
rescue from UPR-induced cell death (cytotoxicity) (STHdhQ111/111 cells; listed as PKR inhibitor): no effect

Tunicamycin [reference compound]
toxicity in pancreatic beta cells [1]: toxic

Reference: patent US10723706B2, “Perk inhibitors and uses thereof in treating diseases associated with aggregation-prone proteins” (Ramot at Tel-Aviv University Ltd., priority 2016, dated 2020)
